Data: publication PMC8691691 (ACS Chemical Neuroscience, 2021)
Substitutions are numbered along the chain they refer to. Read-outs that look alike come from different tables or passages of the source.

Assays:
Experiment in all cases: [3H]glycine transport by GlyT2 mutant in COS7 cells
Type in all cases: cell-based
[1] = target: T1, GlyT2 A210C mutant (Rattus norvegicus, UniProt P58295, A210C)
T1 construct: expressed in transfected cells; host or cells: COS7
T1 sequence (P58295 1-799 A210C): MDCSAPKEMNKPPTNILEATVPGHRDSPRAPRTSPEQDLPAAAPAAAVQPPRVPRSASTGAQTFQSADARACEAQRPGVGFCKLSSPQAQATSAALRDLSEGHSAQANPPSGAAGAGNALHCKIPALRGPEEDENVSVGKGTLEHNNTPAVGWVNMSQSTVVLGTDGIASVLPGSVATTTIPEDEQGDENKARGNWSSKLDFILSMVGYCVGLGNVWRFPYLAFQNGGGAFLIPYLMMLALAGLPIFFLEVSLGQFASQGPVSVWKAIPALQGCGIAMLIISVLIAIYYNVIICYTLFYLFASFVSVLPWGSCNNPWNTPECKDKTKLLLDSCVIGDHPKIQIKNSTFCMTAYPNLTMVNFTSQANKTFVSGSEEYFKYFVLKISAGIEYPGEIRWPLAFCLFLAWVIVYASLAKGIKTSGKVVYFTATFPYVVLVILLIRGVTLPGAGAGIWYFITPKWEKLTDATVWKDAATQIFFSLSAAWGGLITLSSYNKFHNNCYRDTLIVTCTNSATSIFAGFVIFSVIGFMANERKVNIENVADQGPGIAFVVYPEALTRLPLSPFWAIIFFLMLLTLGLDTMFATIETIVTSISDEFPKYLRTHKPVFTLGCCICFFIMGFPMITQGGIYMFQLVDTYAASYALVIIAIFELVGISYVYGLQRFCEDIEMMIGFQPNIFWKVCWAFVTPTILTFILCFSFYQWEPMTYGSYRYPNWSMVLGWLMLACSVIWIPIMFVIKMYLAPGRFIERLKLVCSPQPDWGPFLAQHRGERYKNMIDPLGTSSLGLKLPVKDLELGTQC
From the text: (§1) To validate the predicted interactions between the inhibitors and GlyT2, we used systematic site-directed mutagenesis to construct substitution mutants of the potential residues involved in ligand binding. […] The GlyT2 residues predicted to interact with the inhibitors through its side chain were replaced by amino acids expected to force the loss of the interaction. In the cases where the interaction occurred through the backbone, the inserted amino acid sought to alter the disposition of the substituted residue to lose the coordination.
(§2) Substitution mutants were generated with the QuikChange II Site-Directed Mutagenesis kit (Agilent Technologies, Santa Clara, CA, USA), using rGlyT2 or rGlyT1 subcloned in pCDNA3.[47] The complete coding region of all of the constructs was sequenced to verify that only the desired mutation had been introduced. […] COS7 cells were grown and transfected using Turbofect Transfection Reagent (Thermo Fisher Scientific, Waltham, MA, USA), following the manufacturer’s protocol (2 μL reagent/μg of DNA). Cells were incubated for 48 h at 37 °C until used.
(§3) At the end of the desired time (usually 10 min), reactions were washed and terminated by aspiration. […] A nonlinear curve fitting method was used to obtain IC50 values using Graphpad Prism software, version 6.0, Graphpad, San Diego, CA, USA.

[2] = target: T2, GlyT2 F478Y mutant (Rattus norvegicus, UniProt P58295, F478Y)
T2 construct: expressed in transfected cells; host or cells: COS7
T2 sequence (P58295 1-799 F478Y): T1 sequence (P58295 1-799 A210C) with C210A, F478Y
From the text: as §1, §2, §3

[3] = target: T3, GlyT2 S640C mutant (Rattus norvegicus, UniProt P58295, S640C); conditions: read-out: IC50 (Table S1)
T3 construct: expressed in transfected cells; host or cells: COS7
T3 sequence (P58295 1-799 S640C): T1 sequence (P58295 1-799 A210C) with C210A, S640C
From the text: as §1, §2, §3

Compound	IC50 [1]	IC50 [2]	IC50 [3]	IC50 ([1]; read-out: IC50 (Table S1))	IC50 ([2]; read-out: IC50 (Table S1))
COc1cc(C(=O)NCC2(N(C)C)CCCC2)cc(OC)c1OCc1ccccc1 [ORG25543, N-[[1-(dimethylamino)cyclopentyl]methyl]-3,5-dimethoxy-4-(phenylmethoxy)benzamide]	0.02 ± 0.012 µM	0.019 ± 0.007 µM	0.13 ± 0.006 µM	–	–
N[C@@H](COC(c1cccc(F)c1)c1ccccc1OCc1ccccc1)C(=O)O (stereo partly drawn) [ALX1393]	–	–	0.03 ± 0.007 µM	0.023 ± 0.003 µM	0.05 ± 0.005 µM
